{"source": "patent US20220175766A1", "about": "“COMPOSITIONS AND METHODS OF TREATMENT” (GB004, Inc., priority 2019, published 2022)", "assay": "Phase 1a multiple ascending dose study (oral solution): plasma pharmacokinetics", "assay_type": "in vivo, human", "conditions": "for concentration at 0.5 h: Hour 0.5; for concentration at 0.5 h / concentration at 1 h / concentration at 2 h / concentration at 3 h / concentration at 4 h / concentration at 6 h / concentration at 8 h / concentration at 12 h / concentration at 16 h / concentration at 24 h: read-out: Compound 1 concentration, Conc (SD); for concentration at 1 h: Hour 1; for concentration at 2 h: Hour 2; for concentration at 3 h: Hour 3; for concentration at 4 h: Hour 4; for concentration at 6 h: Hour 6; for concentration at 8 h: Hour 8; for concentration at 12 h: Hour 12; for concentration at 16 h: Hour 16; for concentration at 24 h: Hour 24", "description": "Compound 1 was administered as the HCl-salt (prepared analogously to Example 2.1).\nThe secondary objective was to characterize the multiple dose pharmacokinetic (PK) parameters of Compound 1, after ascending doses. Secondary endpoints included determination of PK parameters in plasma and urine, fecal excretion and assessment of colonic biopsy samples.\nBlood samples were collected at the following time points relative to dose administration on Day 1 and Day 7: pre-dose; 0.5, 1, 2, 3, 4, 6, 8, 12, 16 and 24 hours post dose. Analysis and concentration determinations were performed using a liquid chromatography-mass spectrometry and liquid chromatography-tandem mass spectrometry (LC/MS/MS) method.", "key": {"[1]": {"conditions": "Cohort 1, 60 mg once daily, Day 7"}, "[2]": {"conditions": "Cohort 2, 120 mg once daily, Day 7"}, "[3]": {"conditions": "Cohort 3, 240 mg once daily, Day 7"}, "[4]": {"conditions": "Cohort 4, 120 mg once daily, Day 7"}, "[5]": {"conditions": "Cohort 5, 60 mg once daily, Day 7"}, "[6]": {"conditions": "human, plasma, oral, 60 mg, Cohort 1, 60 mg once daily, Day 7"}, "[7]": {"conditions": "human, plasma, oral, 60 mg, Cohort 1, 60 mg, Day 1"}, "[8]": {"conditions": "human, plasma, oral, 60 mg, Cohort 5, 60 mg once daily, Day 7"}, "[9]": {"conditions": "human, plasma, oral, 60 mg, Cohort 5, 60 mg, Day 1"}, "[10]": {"conditions": "human, plasma, oral, 120 mg, Cohort 2, 120 mg once daily, Day 7"}}, "note": "Like-named read-outs stand apart in the source and are kept apart here.", "data": [{"smiles": "CC(C)(C)OC(=O)N1CCN(Cc2ccn(Cc3ccc(Cl)cc3)c(=O)c2O)CC1", "note": "[Compound 1, tert-butyl 4-((1-(4-chlorobenzyl)-3-hydroxy-2-oxo-1,2-dihydropyridin-4-yl)methyl)piperazine-1-carboxylate]", "values": [{"measurement": "ARAUC (accumulation ratio of AUC), mean", "setting": "[1]", "result": 2.1}, {"measurement": "ARCmax (accumulation ratio of Cmax), mean", "setting": "[1]", "result": 1.0}, {"measurement": "Tmax, median (range)", "setting": "Cohort 1, 60 mg, Day 1", "result": "0.5 (0.5-1.0) h"}, {"measurement": "ARAUC (accumulation ratio of AUC), mean", "setting": "[2]", "result": 1.8}, {"measurement": "ARCmax (accumulation ratio of Cmax), mean", "setting": "[2]", "result": 1.2}, {"measurement": "ARAUC (accumulation ratio of AUC), mean", "setting": "[3]", "result": 1.4}, {"measurement": "ARCmax (accumulation ratio of Cmax), mean", "setting": "[3]", "result": 1.0}, {"measurement": "ARAUC (accumulation ratio of AUC), mean", "setting": "[4]", "result": 2.3}, {"measurement": "ARCmax (accumulation ratio of Cmax), mean", "setting": "[4]", "result": 1.3}, {"measurement": "Tmax, median (range)", "setting": "Cohort 4, 120 mg, Day 1", "result": "0.5 (0.5-1.0) h"}, {"measurement": "ARAUC (accumulation ratio of AUC), mean", "setting": "[5]", "result": 3.0}, {"measurement": "ARCmax (accumulation ratio of Cmax), mean", "setting": "[5]", "result": 1.3}, {"measurement": "concentration at 0.5 h", "setting": "[6]", "result": 4.33, "unit": "ng/mL"}, {"measurement": "concentration at 1 h", "setting": "[6]", "result": 3.02, "unit": "ng/mL"}, {"measurement": "concentration at 2 h", "setting": "[6]", "result": 1.85, "unit": "ng/mL"}, {"measurement": "concentration at 3 h", "setting": "[6]", "result": 0, "unit": "ng/mL"}, {"measurement": "concentration at 4 h", "setting": "[6]", "result": 0, "unit": "ng/mL"}, {"measurement": "concentration at 6 h", "setting": "[6]", "result": 0, "unit": "ng/mL"}, {"measurement": "concentration at 8 h", "setting": "[6]", "result": 0, "unit": "ng/mL"}, {"measurement": "concentration at 12 h", "setting": "[6]", "result": 0, "unit": "ng/mL"}, {"measurement": "concentration at 16 h", "setting": "[6]", "result": 0, "unit": "ng/mL"}, {"measurement": "concentration at 24 h", "setting": "[6]", "result": 0, "unit": "ng/mL"}, {"measurement": "AUC(0-t)", "setting": "human, plasma, oral, 60 mg, Cohort 1, 60 mg once daily, Day 7, read-out: AUC(0-t), mean", "result": 17, "unit": "ng·h/mL"}, {"measurement": "Cmax", "setting": "human, plasma, oral, 60 mg, Cohort 1, 60 mg once daily, Day 7, read-out: Cmax, mean", "result": 4.33, "unit": "ng/mL"}, {"measurement": "concentration at 0.5 h", "setting": "[7]", "result": 3.88, "unit": "ng/mL"}, {"measurement": "concentration at 1 h", "setting": "[7]", "result": 3.16, "unit": "ng/mL"}, {"measurement": "concentration at 4 h", "setting": "[7]", "result": 0, "unit": "ng/mL"}, {"measurement": "concentration at 6 h", "setting": "[7]", "result": 0, "unit": "ng/mL"}, {"measurement": "concentration at 8 h", "setting": "[7]", "result": 0, "unit": "ng/mL"}, {"measurement": "concentration at 12 h", "setting": "[7]", "result": 0, "unit": "ng/mL"}, {"measurement": "concentration at 16 h", "setting": "[7]", "result": 0, "unit": "ng/mL"}, {"measurement": "concentration at 24 h", "setting": "[7]", "result": 0, "unit": "ng/mL"}, {"measurement": "AUC(0-t)", "setting": "human, plasma, oral, 60 mg, Cohort 1, 60 mg, Day 1, read-out: AUC(0-τ) column, AUClast is presented (footnote b), mean (SD)", "result": 5.32, "unit": "ng·h/mL"}, {"measurement": "Cmax", "setting": "human, plasma, oral, 60 mg, Cohort 1, 60 mg, Day 1, read-out: Cmax, mean (SD)", "result": 4.11, "unit": "ng/mL"}, {"measurement": "concentration at 0.5 h", "setting": "[8]", "result": 6.24, "unit": "ng/mL"}, {"measurement": "concentration at 1 h", "setting": "[8]", "result": 4.6, "unit": "ng/mL"}, {"measurement": "concentration at 2 h", "setting": "[8]", "result": 2.57, "unit": "ng/mL"}, {"measurement": "concentration at 3 h", "setting": "[8]", "result": 1.99, "unit": "ng/mL"}, {"measurement": "concentration at 4 h", "setting": "[8]", "result": 1.62, "unit": "ng/mL"}, {"measurement": "concentration at 6 h", "setting": "[8]", "result": 2.15, "unit": "ng/mL"}, {"measurement": "concentration at 8 h", "setting": "[8]", "result": 2, "unit": "ng/mL"}, {"measurement": "concentration at 12 h", "setting": "[8]", "result": 1.7, "unit": "ng/mL"}, {"measurement": "concentration at 16 h", "setting": "[8]", "result": 1.59, "unit": "ng/mL"}, {"measurement": "concentration at 24 h", "setting": "[8]", "result": 1.18, "unit": "ng/mL"}, {"measurement": "AUC(0-t)", "setting": "human, plasma, oral, 60 mg, Cohort 5, 60 mg once daily, Day 7, read-out: AUC(0-t), mean", "result": 53.2, "unit": "ng·h/mL"}, {"measurement": "Cmax", "setting": "human, plasma, oral, 60 mg, Cohort 5, 60 mg once daily, Day 7, read-out: Cmax, mean", "result": 6.31, "unit": "ng/mL"}, {"measurement": "concentration at 0.5 h", "setting": "[9]", "result": 4.83, "unit": "ng/mL"}, {"measurement": "concentration at 1 h", "setting": "[9]", "result": 3.94, "unit": "ng/mL"}, {"measurement": "concentration at 3 h", "setting": "[9]", "result": 0, "unit": "ng/mL"}, {"measurement": "concentration at 4 h", "setting": "[9]", "result": 0, "unit": "ng/mL"}, {"measurement": "concentration at 6 h", "setting": "[9]", "result": 0, "unit": "ng/mL"}, {"measurement": "concentration at 8 h", "setting": "[9]", "result": 0, "unit": "ng/mL"}, {"measurement": "concentration at 12 h", "setting": "[9]", "result": 0, "unit": "ng/mL"}, {"measurement": "concentration at 16 h", "setting": "[9]", "result": 0, "unit": "ng/mL"}, {"measurement": "concentration at 24 h", "setting": "[9]", "result": 0, "unit": "ng/mL"}, {"measurement": "AUC", "setting": "human, plasma, oral, 60 mg, Cohort 5, 60 mg, Day 1, read-out: AUC(0-τ), mean (SD)", "result": 28.7, "unit": "ng·h/mL"}, {"measurement": "Cmax", "setting": "human, plasma, oral, 60 mg, Cohort 5, 60 mg, Day 1, read-out: Cmax, mean (SD)", "result": 5.06, "unit": "ng/mL"}, {"measurement": "concentration at 0.5 h", "setting": "[10]", "result": 11.1, "unit": "ng/mL"}, {"measurement": "concentration at 1 h", "setting": "[10]", "result": 7.7, "unit": "ng/mL"}, {"measurement": "concentration at 2 h", "setting": "[10]", "result": 4.5, "unit": "ng/mL"}, {"measurement": "concentration at 3 h", "setting": "[10]", "result": 3.19, "unit": "ng/mL"}, {"measurement": "concentration at 4 h", "setting": "[10]", "result": 1.6, "unit": "ng/mL"}, {"measurement": "concentration at 6 h", "setting": "[10]", "result": 2.04, "unit": "ng/mL"}, {"measurement": "concentration at 8 h", "setting": "[10]", "result": 2.26, "unit": "ng/mL"}]}]}
